The values below are quoted from earlier work in US5484728A (priority 1994, dated 1996).

For the compound `CCOP(=S)(OCC)Oc1cc(C)nc(C(C)C)n1` [diazinon], the “half-life of diazinon in soil without enzyme present” value was 226 h.
